Experimental data taken from patent US20100267752A1, “3-HYDROQUINAZOLIN-4-ONE DERIVATIVES FOR USE AS STEAROYL CoA DESATURASE INHIBITORS” (Gilead Palo Alto, Inc., priority 2008, published 2010).
pIC50: −log10 of the molar value.

Target: T1, SCD (stearoyl-CoA desaturase) (Rattus norvegicus, UniProt P07308)
T1 construct: The rat liver microsomes were collected according to the procedure described in Ozols (1990) Methods Enzm, 182:225; from tissue; host or cells: liver microsomes of male Sprague Dawley rats, SCD induced by a carbohydrate-rich diet
T1 sequence (P07308 1-358): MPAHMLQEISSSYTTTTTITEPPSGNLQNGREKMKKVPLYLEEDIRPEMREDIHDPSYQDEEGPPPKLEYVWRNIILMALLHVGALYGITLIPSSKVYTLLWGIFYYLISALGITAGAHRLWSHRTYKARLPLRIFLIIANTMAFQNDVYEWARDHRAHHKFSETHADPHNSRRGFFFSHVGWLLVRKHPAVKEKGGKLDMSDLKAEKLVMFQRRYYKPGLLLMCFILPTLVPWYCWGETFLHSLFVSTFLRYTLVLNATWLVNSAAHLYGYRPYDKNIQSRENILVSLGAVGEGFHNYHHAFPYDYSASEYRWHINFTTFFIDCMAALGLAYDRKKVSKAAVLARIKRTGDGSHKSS
Experiment: SCD assay with rat liver microsomes, [3H]stearoyl CoA (adapted from Talamo and Bloch)
Type: biochemical
Settings: rat liver microsomes 0.2 mg/ml final, 30 min preincubation, 45 min reaction at room temperature
Source text: The identification of compounds of the invention as SCD inhibitors was readily accomplished using the SCD enzyme and microsomal assay procedure described in Talamo and Bloch (1969) Analytical Biochemistry 29:300-304.
The rat liver microsomes were collected according to the procedure described in Ozols (1990) Methods Enzm, 182:225.
Male Sprague Dawley Rats were placed on regimented fasting protocol for one week to stimulate SCD enzymatic activity. 48-hour periods were alternated between feeding and fasting to induce and down-regulate SCD activity with SCD activity being induced via carbohydrate rich diet prior to liver perfusion and collection.
The rats were anesthetized with Isoflurane inhalation anesthetic, the liver perfused with cold phosphate buffered saline (PBS), weighed, and chilled in cold homogenization buffer (250 mM sucrose, […] Tris, 1 mM EDTA, pH 7.6.
The livers were finely minced and placed in homogenization tube. 40 mL of homogenization buffer was added to the homogenization tube and the liver homogenized and centrifuged in a pre-chilled SLA-600 TC at 800G rotor for 10 min at 4° C.
Following centrifugation, the supernatant was collected and the pellet removed and discarded. The supernatant was centrifuge at 10,000 G for 35 minutes. Following centrifugation, the supernatant was collect and the pellet discarded. The supernatant was then centrifuged in a pre-chilled 45-Ti rotor at 130,000 G (41,000 RPM) for 90 minutes at 4° C.
The supernatant was then aspirated off and the collected microsomal pellet washed in 25 mL of Glycerol PBS (1×PBS 7.4, 20% Glycerol) and resuspended in 4-5 volumes of Glycerol PBS.
The protein concentration of the microsomal preparation was determined by BCA assay (Pierce) and the microsomes were aliquoted and stored at −80° C.
SCD was determined in the desaturase assay buffer. This assay buffer contained 0.1 M Tris buffer, pH 7.2, 2 mM NADH, 4.8 mM ATP, 0.5 mM CoA, 4.8 mM MgCl2, and 0.1% BSA.
The Procedure for the SCD Assay (Adapted from Talamo and Bloch (1969) Analytical Biochemistry 29:300-304)
1 μl of each compound of Formula I was added to an assay plate by a low volume (0.5-10 μL) multichannel pipette. A DMSO control was also prepared. The microsomes were quickly thawed and added to assay buffer so that a concentration of 0.4 mg/ml was achieved (0.2 mg/ml assay final). 50 μl of the microsome suspension in assay buffer was then added into each well in the compound assay plate, the plate was covered, and the microsomes preincubated with the compounds for 30 minutes on the orbital shaker, 50-75 rpm, at room temperature. […]

Row | pIC50 | SMILES
1 | 5.60 | O=C(Nc1ccc2c(=O)[nH]c(Cc3ccc(Cl)c(Cl)c3)nc2c1)OCc1ccccc1 [I., benzyl 2-(3,4-dichlorobenzyl)-4-oxo-3,4-dihydroquinazolin-7-ylcarbamate]
2 | 5.92 | O=C(Nc1ccc2nc(Cc3ccc(Cl)c(Cl)c3)[nH]c(=O)c2c1)OCc1ccccc1 [II., benzyl 2-(3,4-dichlorobenzyl)-4-oxo-3,4-dihydroquinazolin-6-ylcarbamate]
3 | 6.12 | CC(=O)OCC(=O)Nc1ccc2nc(Cc3ccc(Cl)c(Cl)c3)[nH]c(=O)c2c1 [III., 2-(2-(3,4-dichlorobenzyl)-4-oxo-3,4-dihydroquinazolin-6-ylamino)-2-oxoethyl acetate]
4 | 6.03 | O=C(CO)Nc1ccc2nc(Cc3ccc(Cl)c(Cl)c3)[nH]c(=O)c2c1 [IV., N-(2-(3,4-dichlorobenzyl)-4-oxo-3,4-dihydroquinazolin-6-yl)-2-hydroxyacetamide]
